Assay results reported in patent publication US10111435B2, “Herbicidal compositions containing N-(1,3,4-oxadiazol-2-yl)-aryl carboxylic acid amides” (BAYER CROPSCIENCE AKTIENGESELLSCHAFT, priority 2013, dated 2018).

Legend:
Type in all cases: in vivo
Setaria viridis (SETVI) = experiment: greenhouse post-emergence herbicidal efficacy against SETVI
Procedure: (§1) All trials whose results are shown were conducted in a greenhouse by the methodology specified below. The effect of the inventive herbicidal compositions was examined on the following harmful plants 14 and 21 days after application:
(§2) Echinochloa crus-galli (ECHCG), Eleusine indica (ELEIN), Setaria viridis (SETVI), Amaranthus retroflexus (AMARE), Chenopodium album (CHEAL), Kochia scoparia (KCHSC), Solanum nigrum (SOLNI), Avena fatua (AVEFA), Bromus sterilis (BROST), Lolium multiflorum (LOLMU), Phalaris minor (PHAMI), Poa annua (POAAN), Galium aparine (GALAP), Matricaria inodora (MATIN) and Polygonum convolvulus (POLCO).
(§3) The harmful plant seeds were sown in pots (diameter 8 cm) with sandy loam soil and germinated under optimal conditions. The inventive herbicidal compositions or the active ingredients alone were applied post-emergence to the planted pots with a spray volume of 300 L/ha. The trial was conducted in a greenhouse under optimum growth conditions. The herbicidal effects were assessed visually by comparison of untreated and treated plants. The percentages mean: 0%=no effects, 100%=the plants die off completely). The percentages are used to calculate interactions between individual treatments and combination treatments according to S. R. Colby, Weeds 15, pages 20 to 22 (1967).
(§4) The abbreviations mean: • a.i.=active ingredient • E^C=expected value according to Colby (E^C=A+B−A×B/100) • Diff: =difference (%) of measured value from expected value (%) (measured value minus expected value)
(§5) Assessment: • measured value E is greater than E^C:->synergism (+ diff.) • measured value E equals E^C:->additive effect • measured value E is smaller than E^C:->antagonism(− diff.)

[1] = tested on: Amaranthus retroflexus (AMARE); experiment: greenhouse post-emergence herbicidal efficacy against AMARE
Procedure: as §1, §2, §3, §4, §5

DIGSA = experiment: greenhouse post-emergence herbicidal efficacy against DIGSA
Procedure: as §1, §3, §4, §5

[2] = tested on: Chenopodium album (CHEAL); experiment: greenhouse post-emergence herbicidal efficacy against CHEAL
Procedure: as §1, §2, §3, §4, §5

Eleusine indica (ELEIN) = experiment: greenhouse post-emergence herbicidal efficacy against ELEIN; conditions: for pest or weed control at 10 g/ha: 10 g of a.i./ha; for pest or weed control at 40 g/ha: 40 g of a.i./ha
Procedure: as §1, §2, §3, §4, §5

[3] = tested on: Echinochloa crus-galli (ECHCG); experiment: greenhouse post-emergence herbicidal efficacy against ECHCG
Procedure: as §1, §2, §3, §4, §5

Kochia scoparia (KCHSC) = experiment: greenhouse post-emergence herbicidal efficacy against KCHSC
Procedure: as §1, §2, §3, §4, §5

Solanum nigrum (SOLNI) = experiment: greenhouse post-emergence herbicidal efficacy against SOLNI; conditions: 21 days after application
Procedure: as §1, §2, §3, §4, §5

[4] = 14 days after application, 40 g of a.i./ha
[5] = 14 days after application, 10 g of a.i./ha
[6] = 21 days after application, 40 g of a.i./ha
[7] = Eleusine indica, post-emergence, 336 h, 14 days after application
[8] = Eleusine indica, post-emergence, 504 h, 21 days after application
[9] = 14 days after application, 1 g of a.i./ha
[10] = 21 days after application, 4 g of a.i./ha
[11] = 21 days after application, 1 g of a.i./ha
[12] = 14 days after application, 4 g of a.i./ha
[13] = 21 days after application, 2 g of a.i./ha
[14] = 21 days after application, 0.5 g of a.i./ha
[15] = 21 days after application, 0.25 g of a.i./ha

Q: How did the Efficacy (Setaria viridis (SETVI); [4]) turn out when `COc1c(Cl)ccc(Cl)c1C(=O)O` [dicamba] was run?
A: 0%

Q: What about the Efficacy (Setaria viridis (SETVI); [5]) of the same molecule?
A: 0%

Q: And the Efficacy (Setaria viridis (SETVI); 21 days after application, 10 g of a.i./ha)?
A: 0%

Q: And the Efficacy (Setaria viridis (SETVI); [6])?
A: 0%

Q: And the Efficacy [1, 4]?
A: 65%

Q: What about the Efficacy [1, 6] of the same molecule?
A: 65%

Q: And the Efficacy (DIGSA; [4])?
A: 0%

Q: And the Efficacy (DIGSA; [6])?
A: 0%

Q: What about the Efficacy [2, 5] of the same molecule?
A: 50%

Q: What about the pest or weed control at 10 g/ha (Eleusine indica (ELEIN); [7]) of the same molecule?
A: 10%

Q: What about the pest or weed control at 40 g/ha (Eleusine indica (ELEIN); [7]) of the same molecule?
A: 10%

Q: What about the pest or weed control at 10 g/ha (Eleusine indica (ELEIN); [8]) of the same molecule?
A: 0%

Q: And the pest or weed control at 40 g/ha (Eleusine indica (ELEIN); [8])?
A: 0%

Q: `COc1cc(OC)nc(NC(=O)NS(=O)(=O)c2cc(NC=O)ccc2C(=O)N(C)C)n1` [foramsulfuron] was tested. Which Efficacy (Setaria viridis (SETVI); [9]) did it give?
A: 40%

Q: What about the Efficacy (Setaria viridis (SETVI); [10]) of the same molecule?
A: 50%

Q: What about the Efficacy (Setaria viridis (SETVI); [11]) of the same molecule?
A: 20%

Q: What about the Efficacy [3, 9] of the same molecule?
A: 60%

Q: What about the Efficacy [3, 11] of the same molecule?
A: 30%

Q: And the Efficacy (Kochia scoparia (KCHSC); [9])?
A: 80%

Q: What about the Efficacy (Kochia scoparia (KCHSC); [12]) of the same molecule?
A: 90%

Q: What about the Efficacy (Kochia scoparia (KCHSC); [10]) of the same molecule?
A: 80%

Q: What about the Efficacy (DIGSA; [12]) of the same molecule?
A: 40%

Q: And the Efficacy [2, 9]?
A: 50%

Q: What about the pest or weed control at 1 g/ha (Eleusine indica (ELEIN); Eleusine indica, post-emergence, 504 h, 21 days after application, 1 g of a.i./ha) of the same molecule?
A: 60%

Q: With `COc1c(Cl)ccc(-c2cc(N)c(Cl)c(C(=O)O)n2)c1F` [halauxifen] as the molecule, how does the Efficacy (Setaria viridis (SETVI); [13]) read?
A: 0%

Q: What about the Efficacy ([3]; 14 days after application, 0.5 g of a.i./ha) of the same molecule?
A: 0%

Q: What about the Efficacy ([3]; 14 days after application, 2 g of a.i./ha) of the same molecule?
A: 10%

Q: What about the Efficacy [3, 13] of the same molecule?
A: 20%

Q: And the Efficacy (Kochia scoparia (KCHSC); [14])?
A: 20%

Q: And the Efficacy (Kochia scoparia (KCHSC); [13])?
A: 30%

Q: And the Efficacy (Solanum nigrum (SOLNI); 0.5 g of a.i./ha)?
A: 50%

Q: And the Efficacy (Eleusine indica (ELEIN); [14])?
A: 0%

Q: What about the Efficacy (Eleusine indica (ELEIN); [13]) of the same molecule?
A: 0%

Q: `COC(=O)c1csc(C)c1S(=O)(=O)NC(=O)n1nc(OC)n(C)c1=O` [thiencarbazone-methyl] was tested. Which Efficacy [1, 15] did it give?
A: 60%

Q: And the Efficacy (Solanum nigrum (SOLNI); 1 g of a.i./ha)?
A: 50%

Q: What about the Efficacy [2, 15] of the same molecule?
A: 50%

Q: And the Efficacy [2, 11]?
A: 70%
